Where two headings read alike, the source gives them in different places.
What was measured:
PARS = PARS (Mus musculus, UniProt P11103); assay: PARS inhibition by nucleoside derivatives (in vitro inflammation models); type: cell-based
From the text: For example, conjugates of adenosine derivatives were investigated for PARS inhibition.

[1] = molecular target: T1, poly (ADP-ribose) synthetase (PARS) (Mus musculus, UniProt P11103); assay: Peroxynitrite-induced PARS activation and cell injury in J774 macrophages; type: cell-based; settings: J774 macrophages exposed to peroxynitrite
T1 construct: endogenous in cells; host or cells: J774 macrophages
From the text: In in vitro studies, J774 macrophages were exposed to peroxynitrite to induce activation of PARS and related cell injury.

[2] = system: rat model of middle cerebral artery occlusion/reperfusion; assay: Middle cerebral artery occlusion/reperfusion; type: in vivo; settings: 2 h occlusion, 24 h reperfusion, 10 mg/kg i.v. then 10 mg/kg/h, tetrazolium staining
Procedure: Occlusion lasted for 2 hours, followed by reperfusion for 24 hours. Infarct size was quantified with tetrazolium staining and survival and neurological scores were monitored. The compounds were administered at 10 mg/kg i.v. 5 min before the start of reperfusion in one group, and continued at a rate of 10 mg/kg/h infusion during the reperfusion. Vehicle-treated animals (control) developed a >50% mortality over 24 hours, whereas <10% of the animals died in the drug treated groups. The compounds tested reduced the size of brain infarction by 64±2 and 57±3%, respectively.

[3] = system: endotoxin-induced lethality in a mouse model; assay: Endotoxin-induced lethality (systemic inflammation); type: in vivo
Procedure: The compounds were given as oral gavage at 10 mg/kg, twice a day.

[4] = system: mouse model of gut ischemia-reperfusion; assay: Gut ischemia-reperfusion by ligation and release of superior mesenteric artery; FD4 gut permeability in everted gut sacks; settings: 10 mg/kg i.v. 10 min prior to reperfusion
Procedure: In order to examine the efficacy of the compounds of the invention in ischemia-reperfusion conditions, the effect of selected compounds in a local model of reperfusion injury was examined. […] The artery was occluded for 45 min, followed by reperfusion for 1 h. Following the end of the reperfusion, gut permeability was measured with the fluorescein isothiocyanate-conjugated dextran (FD4) method in everted gut sacks.
The artery was occluded for 45 min, followed by reperfusion for 1 h. Following the end of the reperfusion, gut permeability was measured with the FD4 method in everted gut sacks.

[5] = 10 μM, Table 3 parent/reference compounds, read-out: INHIBITION at 10 μM
[6] = 10 μM, values marked *, asterisk not explained, read-out: Inhibition at 10 μM (values marked *)

Chain of PARS (P11103 whole entry): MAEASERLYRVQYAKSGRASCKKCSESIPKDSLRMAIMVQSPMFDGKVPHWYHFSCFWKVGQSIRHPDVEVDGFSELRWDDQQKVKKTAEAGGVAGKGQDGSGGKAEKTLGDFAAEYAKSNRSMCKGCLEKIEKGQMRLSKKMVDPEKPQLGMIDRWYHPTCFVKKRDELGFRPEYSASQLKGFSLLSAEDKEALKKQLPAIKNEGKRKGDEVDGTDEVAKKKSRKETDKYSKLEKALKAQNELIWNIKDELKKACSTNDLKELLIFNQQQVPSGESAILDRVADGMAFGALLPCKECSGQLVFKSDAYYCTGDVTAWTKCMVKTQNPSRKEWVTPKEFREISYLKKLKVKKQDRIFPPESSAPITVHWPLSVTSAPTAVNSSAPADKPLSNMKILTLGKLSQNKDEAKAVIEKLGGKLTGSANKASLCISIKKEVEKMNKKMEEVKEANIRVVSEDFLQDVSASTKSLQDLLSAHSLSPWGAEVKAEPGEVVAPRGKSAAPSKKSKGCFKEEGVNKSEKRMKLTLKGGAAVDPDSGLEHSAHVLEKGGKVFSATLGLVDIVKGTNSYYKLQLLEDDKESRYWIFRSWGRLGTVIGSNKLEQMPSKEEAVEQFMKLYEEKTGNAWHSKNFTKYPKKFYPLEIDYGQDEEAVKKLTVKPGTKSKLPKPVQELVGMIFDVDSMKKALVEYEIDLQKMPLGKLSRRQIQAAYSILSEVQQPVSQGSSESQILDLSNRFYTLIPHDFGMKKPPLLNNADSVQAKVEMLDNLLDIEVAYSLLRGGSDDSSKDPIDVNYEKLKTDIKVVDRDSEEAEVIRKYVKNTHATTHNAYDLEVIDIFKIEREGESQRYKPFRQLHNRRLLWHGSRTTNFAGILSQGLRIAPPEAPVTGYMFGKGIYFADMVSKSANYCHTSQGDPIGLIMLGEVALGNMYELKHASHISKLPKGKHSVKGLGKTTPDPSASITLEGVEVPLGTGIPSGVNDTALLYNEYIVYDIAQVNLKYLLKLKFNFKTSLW
T1 sequence (P11103 whole entry): as above

Molecule | inhibition at 100 µM (PARS; read-out: Inhibition at 100 μM) | inhibition at 10 µM (PARS; read-out: Inhibition at 10 μM) | also measured
NC(=O)c1ccccc1-c1cccc(N)c1 [F, reference compound] |  |  | inhibition at 10 µM (PARS; [5]): 37%
NC(=O)c1ccccc1-c1cccc(NC(=O)CCC(=O)NCC2OC(n3cnc4c(N)ncnc43)C(O)C2O)c1 (stereo not shown) [Compound 133] | 69% | 5% | 
O=C1NCc2c1cccc2[N+](=O)[O-] [Compound 3, 4-nitro-2,3-dihydro-1H-isoindol-1-one] |  |  | inhibition at 10 µM [1]: 12%
CC1(C)OC2C(CN3C(=O)c4ccccc4C3=O)OC(n3cnc4c(N)ncnc43)C2O1 (stereo not shown) [Compound 137] | 40% | 21% | 
Nc1cccc2c1CNC2=O [Compound 4, 4-amino-2,3-dihydro-1H-isoindol-1-one] |  |  | inhibition at 10 µM (PARS; [5]): 27%; inhibition at 10 µM [1]: 27%
CN1CCN(CCC(=O)Nc2cccc3c2CNC3=O)CC1 [Compound 9, 4-N-(N-methylpiperazine)propylamido-2,3-dihydro-1H-isoindol-1-one] |  |  | % Inhibition (10 μM) [1]: 59%
NC(=O)c1cccc(NC(=O)CCC(=O)NCC2OC(n3cnc4c(N)ncnc43)C(O)C2O)c1 (stereo not shown) [Compound 134] | 73% | 52% | 
O=C(O)CCn1ccc2c1CCCC2=O [C, reference compound] |  |  | inhibition at 10 µM (PARS; [5]): 4%
Nc1ncnc2c1ncn2[C@@H]1OC(CNC(=O)c2c(F)ccc(F)c2C(=O)Nc2cccc3c2CNC3=O)[C@@H](O)[C@H]1O (stereo partly shown) [Compound 115] | 34% | 0% | 
Nc1ncnc2c1ncn2C1OC(CNC(=O)CCn2ccc3c2CCCC3=O)C(O)C1O (stereo not shown) [Compound 136] | 42% | 32% | 
Nc1ncnc2c1ncn2C1OC(CNC(=O)C(F)(F)C(F)(F)C(F)(F)C(=O)Nc2cccc3c2CNC3=O)C(O)C1O (stereo not shown) [Compound 113] | 85% | 55% | 
Nc1ncnc2c1ncn2[C@@H]1OC(CNC(=O)/C=C/c2ccc(C(=O)Nc3cccc4c3CNC4=O)cc2)[C@@H](O)[C@H]1O (stereo partly shown) [Compound 118] | 51.4% | 31.3% | 
O=C(CCC(=O)N1CCc2ccccc2C1)Nc1cccc2c1CNC2=O [Compound 36, 4-N-(tetrahydroisoquinolinosuccinamido)-2,3-dihydro-1H-isoindol-1-one] |  |  | % Inhibition (10 μM) [1]: 64%
Nc1ncnc2c1ncn2[C@@H]1OC(CNC(=O)c2cc(Cl)c(Cl)cc2C(=O)Nc2cccc3c2CNC3=O)[C@@H](O)[C@H]1O (stereo partly shown) [Compound 116] | 55% | 0% | 
CC1(C)OC2C(CNC(=O)CCn3ccc4c3CCCC4=O)OC(n3cnc4c(N)ncnc43)C2O1 (stereo not shown) [Compound 135] | 25% | 15% | 
Nc1ncnc2c1ncn2C1OC(CNC(=O)CCCCCCC(=O)Nc2cccc3c2CNC3=O)C(O)C1O (stereo not shown) [Compound 106] |  |  | inhibition at 10 µM (PARS; 10 μM): 98; inhibition at 100 µM (PARS; 100 μM): 100
CN1CCN(CCCC(=O)Nc2cccc3c2CNC3=O)CC1 [Compound 10, 4-N-(N-methylpiperazine)butylamido-2,3-dihydro-1H-isoindol-1-one] |  |  | % Inhibition (10 μM) [1]: 35%
CCN(CCC(=O)Nc1cccc2c1CNC2=O)C(=O)C1OC(n2cnc3c(N)ncnc32)C(O)C1O (stereo not shown) [Compound 127] |  |  | inhibition at 10 µM (PARS; [6]): 89%
Nc1ncnc2c1ncn2C1OC(C(=O)NCC(=O)Nc2cccc3c2CNC3=O)C(O)C1O (stereo not shown) [Compound 128] |  |  | inhibition at 10 µM (PARS; [6]): 83.2%
CCN(CC(=O)Nc1cccc2c1CNC2=O)C(=O)C1OC(n2cnc3c(N)ncnc32)C(O)C1O (stereo not shown) [Compound 126] |  |  | inhibition at 10 µM (PARS; [6]): 67.1%

Molecule | inhibition at 100 µM (PARS; read-out: Inhibition at 100 μM) | inhibition at 10 µM (PARS; read-out: Inhibition at 10 μM) | also measured
O=C(CN1CCNCC1)Nc1cccc2c1CNC2=O [Compound 73] |  |  | inhibition at 10 µM [1]: 61%
Nc1ncnc2c1ncn2C1OC(C(=O)NCCC(=O)Nc2cccc3c2CNC3=O)C(O)C1O (stereo not shown) [Compound 129] |  |  | inhibition at 10 µM (PARS; [6]): 77.4%
O=C1NCc2ccccc21 [Compound 1] |  |  | inhibition at 10 µM (PARS; [5]): 33%; inhibition at 10 µM [1]: 33%
NCC1OC(n2cnc3c(N)ncnc32)C(O)C1O (stereo not shown) [Compound 139] | 27% |  | 
Nc1ncnc2c1ncn2C1OC(CNC(=O)CCC(=O)Nc2cccc3c2CNC3=O)C(O)C1O (stereo not shown) [Compound 102] |  |  | inhibition at 10 µM (PARS; read-out: Inhibition at 10 μM, 10 μM): 100%; inhibition at 100 µM (PARS; read-out: Inhibition at 100 μM, 100 μM): 100%
O=C1NCc2c(O)cccc21 [Compound 27, 4-hydroxy-2,3-dihydro-1H-isoindol-1-one] |  |  | inhibition at 10 µM [1]: 60%
Nc1ncnc2c1ncn2[C@@H]1O[C@H](CO)[C@@H](O)[C@H]1O [G, adenosine, reference compound] |  |  | PARS inhibitory activity (in words) (PARS): only modest activity; inhibition at 10 µM (PARS; [5]): 40%
CN(CC(=O)Nc1cccc2c1CNC2=O)C(=O)C1OC(n2cnc3c(N)ncnc32)C(O)C1O (stereo not shown) [Compound 123] |  |  | inhibition at 10 µM (PARS; [6]): 74%
O=C(CCC(=O)Nc1cccc2c1CNC2=O)NCC1OC(n2cnc3c(NCC4CC4)ncnc32)C(O)C1O (stereo not shown) [Compound 122] |  |  | inhibition at 10 µM (PARS; [6]): 25%
3-N-chloroacetyl-2,3-dihydro-1H-isoindol-1-one [Compound 5] |  |  | % Inhibition (10 μM) [1]: 29%
CN(CCC(=O)Nc1cccc2c1CNC2=O)C(=O)C1OC(n2cnc3c(N)ncnc32)C(O)C1O (stereo not shown) [Compound 124] |  |  | reduction of the size of brain infarction [2]: 64±2%; protection against endotoxin-induced lethality [3]: protected against endotoxin-induced lethality; reduction of the increase in the permeability of the gut [4]: 72%
O=C(O)CCC(=O)Nc1cccc2c1CNC2=O [Compound 55, 4-N-(succinyl)-2,3-dihydro-1H-isoindol-1-one] |  |  | % Inhibition (10 μM) [1]: 25%
Nc1ncnc2c1ncn2C1OC(CNC(=O)CCCCCCC(=O)Nc2cccc3c2CNC3=O)C(O)C1O (stereo not shown) [Compound 131] |  |  | inhibition at 10 µM (PARS; 10 μM): 36; inhibition at 100 µM (PARS; 100 μM): 68
CC1(C)OC2C(CNC(=O)CCCC(=O)Nc3cccc4c3CNC4=O)OC(n3cnc4c(N)ncnc43)C2O1 (stereo not shown) [Compound 110] | 64% | 29% | 
CN(CCCCCCCC(=O)Nc1cccc2c1CNC2=O)C(=O)C1OC(n2cnc3c(N)ncnc32)C(O)C1O (stereo not shown) [Compound 125] |  |  | inhibition at 10 µM (PARS; [6]): 70%
COc1cccc2c1CNC2=O [Compound 28] |  |  | inhibition at 10 µM [1]: 64%
N=C(N)NCCC[C@H](N)C(=O)Nc1cccc2c1CNC2=O [Compound 42, 4-N-(arginyl)-2 ,3-dihydro-1H-isoindol-1-one] |  |  | % Inhibition (10 μM) [1]: 72%
O=C1NCc2c(F)cccc21 [Compound 2] |  |  | inhibition at 10 µM [1]: 27%
Nc1ncnc2c1ncn2C1OC(C(=O)O)C(O)C1O (stereo not shown) [Compound 140] |  | 14.2% | 

The next lines start with results.

inhibition at 100 µM (PARS; read-out: Inhibition at 100 μM) | inhibition at 10 µM (PARS; read-out: Inhibition at 10 μM) | Molecule | also measured
81% |  | Nc1ncnc2c1ncn2C1OC(CNC(=O)CC(O)CC(=O)Nc2cccc3c2CNC3=O)C(O)C1O (stereo not shown) [Compound 121] | inhibition at 10 µM (PARS; [6]): 13.3%
100% | 62% | Nc1ncnc2c1ncn2C1OC(CNC(=O)CNC(=O)Nc2cccc3c2CNC3=O)C(O)C1O (stereo not shown) [Compound 120] | 
100% | 56% | Nc1ncnc2c1ncn2C1OC(CNC(=O)COCC(=O)Nc2cccc3c2CNC3=O)C(O)C1O (stereo not shown) [Compound 114] | 
100% | 62% | Nc1ncnc2c1ncn2C1OC(CNC(=O)CCCCCCCC(=O)Nc2cccc3c2CNC3=O)C(O)C1O (stereo not shown) [Compound 107] | 
83% | 61% | O=C(CCC(=O)Nc1cccc2c1CNC2=O)NCC1OC(n2ccc(O)nc2=O)C(O)C1O (stereo not shown) [Compound 132] | 
74% | 34% | Nc1ncnc2c1ncn2C1OC(CNC(=O)CCCCCCCCC(=O)Nc2cccc3c2CNC3=O)C(O)C1O (stereo not shown) [Compound 108] | 
58% | 25% | Nc1ncnc2c1ncn2C1OC(CNCC(=O)Nc2cccc3c2CNC3=O)C(O)C1O (stereo not shown) [Compound 119] | 
60% | 29% | CC1(C)OC2C(CNC(=O)CCC(=O)Nc3cccc4c3CNC4=O)OC(n3cnc4c(N)ncnc43)C2O1 (stereo not shown) [Compound 109] | 
100% | 66% | Nc1ncnc2c1ncn2C1OC(CNC(=O)CCCCCC(=O)Nc2cccc3c2CNC3=O)C(O)C1O (stereo not shown) [Compound 105] | 
100% | 64% | Nc1ncnc2c1ncn2C1OC(CNC(=O)CC(=O)Nc2cccc3c2CNC3=O)C(O)C1O (stereo not shown) [Compound 101] | 
100% | 75% | Nc1ncnc2c1ncn2C1OC(CNC(=O)C(O)C(O)C(=O)Nc2cccc3c2CNC3=O)C(O)C1O (stereo not shown) [Compound 111] | 
